US20220298225A1, “METHODS AND COMPOSITIONS FOR TREATING CANCER WITH COLLAGEN BINDING DRUG CARRIERS” (The University of Chicago, priority 2019, published 2022)

Experiments:
B = test: B
Method: Table printed on a drawing sheet, FIG. 2A-D
Blood plasma was collected at indicated time points. […] (B) Plasma half-lives of Dox were calculated using two-phase exponential decay: MFI (t)=Ae^−αt+Be^−βt. t½, α, fast clearance half-life; t½, β, slow clearance half-life. […] At the indicated time points, tumors were harvested, and the amount of Dox within the tumors was quantified (mean±SEM. n=5 for 2 h, n=7 for 24 h per group). […] 1 h after injection, tumors were harvested and fluorescence was analyzed by confocal microscopy. Tissues were also stained with DAPI and anti-CD31 antibody. Scale bar=100 μm. Representative images of 3 tumors, each. Two experimental replicates. Statistical analyses were done using ANOVA with Tukey's test. *p<0.05; **p<0.01; N.S.=not significant.

MMTV-PyMT cells = test: Cellular uptake of Dox-conjugates (confocal microscopy); type: cell-based, mouse; details: after 1 h of incubation, 50 μM equivalent of Dox
Method: To evaluate the cellular uptake of Dox-conjugates, MMTV-PyMT cells were seeded in 96 well high content imaging plate (Corning) at 5000 cells/well and incubated overnight. […] After the incubation, cells were washed twice, treated with 75 nM of Lysotracker Deep Red and further incubated 30 min at 37° C. Cells were washed twice and observed by IX83 microscope (Olympus) with ×60 magnification. Images were processed using ImageJ software (NIH). Scale bar; 20 μm.

[1] = mouse models; cited from earlier work
MMTV-PyMT breast cancer [2] = test: MMTV-PyMT murine breast cancer model, anti-tumor efficacy; type: in vivo, mouse; details: single i.v. injection 5 mg/kg Dox basis on day 7
Method: The MMTV-PyMT murine breast cancer model was prepared as described previously (9). A total of 5×10^5 MMTV-PyMT cells suspended in 50 μL of PBS were injected subcutaneously into the mammary gland on the right side of each mouse. […] Tumors were measured with a digital caliper at indicated time points, and volumes were calculated as ellipsoids, where V=4/3×3.14×depth/2×width/2×height/2. Mice were sacrificed when tumor volume had reached over 500 mm^3 or when active ulceration was observed. For the therapeutic experiment, FVB mice originated from Charles River origin were used. […] The proportion of mice from different providers was equalized among all groups.

MMTV-PyMT breast cancer [3] = test: Tumor-infiltrating lymphocytes by flow cytometry in MMTV-PyMT model; type: in vivo, mouse; details: 7 days after treatment, 5 mg/kg
Method: MMTV-PyMT model was prepared as described above. […] Mice were sacrificed on day 14. Cell suspensions were obtained from each tumor as described previously (9). Tumors were harvested and digested in Dulbecco's Modified Eagle Medium (DMEM) supplemented with 2% FBS, 2 mg/mL collagenase D and 40 μg/mL DNase I (Roche) for 30 min at 37° C. Single-cell suspensions were obtained by gently disrupting the organs through a 70 μm cell strainer. Red blood cells were lysed with ACK lysing buffer (Quality Biological). Fixable live/dead cell discrimination was performed using Fixable Viability Dye eFluor 455 (eBioscience) according to the manufacturer's instructions. Following a washing step, cells were stained with specific antibodies for 20 min on ice prior to fixation. Following antibodies were used to stain the cells: CD3 (145-2C11, BD Biosciences), CD4 (RM4-5, BD Biosciences), CD8α (53-6.7, BD Biosciences), CD45 (30-F11, BD Biosciences), and NK1.1 (PK136, BD Biosciences). All flow cytometric analyses were done using a Fortessa flow cytometer (BD Biosciences) and analyzed using FlowJo software (Tree Star).

[4] = Toxicity profiles in tumor-free FVB mice; details: 20 mg/kg Dox basis
Method: Blood samples were collected from each mouse in EDTA-coated tube by submandibular bleeding on day 3 and day 6 after injection for plasma cytokine analysis and hematological analysis. Body weight of each mouse was measured at indicated time points. On day 16, mice were sacrificed and organs were harvested. Spleens were weighed, and the other organs were used for histological analysis. Mice were sacrificed when more than 15% decrease of initial body weight was observed.
Blood samples were analyzed using COULTER Ac⋅T 5diff CP hematology analyzer (Beckman coulter) according to the manufacturer's instructions.
Blood plasma was collected from whole blood sample as described above and stored at −20° C. until use. Cytokine concentrations in plasma were measured using Ready-SET-Go! ELISA kits (eBioscience) and Can Get Signal solution (TOYOBO) according to manufacturer's instructions.
Organs were fixed with 2% paraformaldehyde in PBS overnight. After embedding in paraffin, blocks were cut into 5 μm sections, followed by H&E staining.

SMILES: COc1cccc2c1C(=O)c1c(O)c3c(c(O)c1C2=O)C[C@@](O)(/C(CO)=N/NC(=O)CCCCCN1C(=O)C=CC1=O)C[C@@H]3O[C@H]1C[C@H](N)[C@H](O)[C@H](C)O1 [Aldoxorubicin]
- t½, α (B): 2.4 ± 0.168 min
- t½, β (B): 22.6 ± 3.3 h

SMILES: COc1cccc2c1C(=O)c1c(O)c3c(c(O)c1C2=O)C[C@@](O)(C(=O)CO)C[C@@H]3O[C@H]1C[C@H](N)[C@H](O)[C@H](C)O1 [Dox, Doxorubicin]
- intracellular localization of Dox fluorescence (MMTV-PyMT cells): detected in cytoplasm, intracellular acidic organelles, and preferentially in the nucleus
- cumulative dose that irreversibly damages cardiac tissue [1]: 15 mg/kg

SMILES: COc1cccc2c1C(=O)c1c(O)c3c(c(O)c1C2=O)C[C@@](O)(/C(CO)=N/NC(=O)CCCCCN1C(=O)C=CC1=O)C[C@@H]3O[C@H]1C[C@H](N)[C@H](O)[C@H](C)O1 [aldoxorubicin]
- tumor growth (MMTV-PyMT breast cancer [2]): did not
- number of CD4+ T cells within the tumor per unit tumor mass (MMTV-PyMT breast cancer [3]): not
- number of CD8+ T cells within the tumor per unit tumor mass (MMTV-PyMT breast cancer [3]): not
- number of NK cells within the tumor per unit tumor mass (MMTV-PyMT breast cancer [3]): not
- plasma concentration of IFN-γ ([4]; day 3): increased
- plasma concentration of IL-5 ([4]; day 3): increased
- plasma concentration of IL-6 ([4]; day 3): increased
- plasma concentration of TNF-α ([4]; day 3): increased
- white blood cell (WBC) counts ([4]; day 3): significant decrease
- hematocrit ([4]; day 6): significant decrease
- hemoglobin concentration ([4]; day 6): significant decrease
- red blood cell (RBC) counts ([4]; day 6): significant decrease
- splenomegaly (spleen weight) ([4]; day 16): induced splenomegaly
